Data reported in ChEMBL document CHEMBL4261659, “Synthesis and biological evaluation of novel N-substituted nipecotic acid derivatives with a trans-alkene spacer as potent GABA uptake inhibitors” (Bioorg Med Chem, 2018).

target: Sodium- and chloride-dependent GABA transporter 1 (Mus musculus) (UniProt P31648); test: Displacement of NO711 from mouse GAT1 expressed in stable HEK293 cells assessed as remaining specific NO711 binding level preincubated at 100 uM for 10 mins followed by NO711 addition and measured after 40 mins by LC-ESI-MS/MS analysis; assay type: cell-based

| Structure (SMILES) | Activity [%] |
| --- | --- |
| COc1ccc(C(O)(/C=C/CN2CCCC(C(=O)O)C2)c2ccc(OC)cc2)cc1 (racemic) | 54 |
| O=C(O)C1CCCN(C/C=C/C(c2ccc3sccc3c2)(c2ccc3sccc3c2)c2ccc3sccc3c2)C1 (racemic) | 54 |
| COc1ccc(C(/C=C/CN2CCCC(C(=O)O)C2)(c2ccc(OC)cc2)c2nccn2C)cc1 (racemic) | 62 |

tested on: GABA transporter 3 (Mus musculus); test: Inhibition of mouse GAT3 expressed in HEK293 cells assessed as remaining [3H]GABA uptake at 100 uM preincubated for 25 mins followed by [3H]GABA addition and measured after 4 mins by liquid scintillation counting method

| Structure (SMILES) | Activity [%] |
| --- | --- |
| COc1ccc(C(O)(/C=C/CN2CCCC(C(=O)O)C2)c2ccc(OC)cc2)cc1 (racemic) | 66 |
| O=C(O)C1CCCN(C/C=C/C(c2ccccc2)(c2ccccc2)c2ccccc2)C1 (racemic) | 103 |
| COc1ccc(C(C/C=C/CN2CCCC(C(=O)O)C2)c2ccc(OC)cc2)cc1 (racemic) | 71 |
| COc1ccc(CC(/C=C/CN2CCCC(C(=O)O)C2)(c2ccc(OC)cc2)c2ccc(OC)cc2)cc1 (racemic) | 53 |
| O=C(O)C1CCCN(C/C=C/CC(c2ccccc2)(c2ccccc2)c2ccccc2)C1 (racemic) | 56 |
| O=C(O)C1CCCN(C/C=C/CC(c2ccccc2)c2ccccc2)C1 (racemic) | 69 |
| COc1ccc(C(/C=C/CN2CCCC(C(=O)O)C2)(c2ccc(OC)cc2)c2nccn2C)cc1 (racemic) | 83 |
| COc1ccc(C(/C=C/CN2CCCC(C(=O)O)C2)(Cc2ccccc2)c2ccc(OC)cc2)cc1 (racemic) | 66 |
| COc1ccc(C(/C=C/CN2CCCC(C(=O)O)C2)(c2ccc(OC)cc2)c2nccs2)cc1 (racemic) | 82 |

target: T1, Sodium- and chloride-dependent GABA transporter 1 (Mus musculus, UniProt P31648); test: Inhibition of mouse GAT1 expressed in HEK293 cells assessed as reduction in [3H]GABA uptake preincubated for 25 mins followed by [3H]GABA addition and measured after 4 mins by liquid scintillation counting method; assay type: cell-based

| Structure (SMILES) | IC50 [µM] |
| --- | --- |
| COc1ccc(C(O)(/C=C/CN2CCCC(C(=O)O)C2)c2ccc(OC)cc2)cc1 (racemic) | 70.8 |
| COc1ccc(C(/C=C/CN2CCCC(C(=O)O)C2)(c2ccc(OC)cc2)c2ccsc2)cc1 (racemic) | 38.9 |
| O=C(O)C1CCCN(C/C=C/C(c2ccccc2)(c2ccccc2)c2ccccc2)C1 (racemic) | 40.7 |
| COc1ccc(C(C/C=C/CN2CCCC(C(=O)O)C2)c2ccc(OC)cc2)cc1 (racemic) | 13.5 |
| O=C(O)C1CCCN(C/C=C/C(c2ccc3c(c2)OCO3)(c2ccc3c(c2)OCO3)c2ccc3c(c2)OCO3)C1 (racemic) | 17.8 |
| COc1ccc(C(/C=C/CN2CCCC(C(=O)O)C2)(c2ccc(OC)cc2)c2ccc3sccc3c2)cc1 (racemic) | 10.2 |
| COc1ccc(C(/C=C/CN2CCCC(C(=O)O)C2)(c2ccc(OC)cc2)c2ccc3c(c2)OCO3)cc1 (racemic) | 28.2 |
| COc1ccc(CC(/C=C/CN2CCCC(C(=O)O)C2)(c2ccc(OC)cc2)c2ccc(OC)cc2)cc1 (racemic) | 11.2 |
| COc1ccc(C(/C=C/CN2CCCC(C(=O)O)C2)c2ccc(OC)cc2)cc1 (racemic) | 14.1 |
| COc1ccc(C(C/C=C/CN2CCCC(C(=O)O)C2)(c2ccc(OC)cc2)c2ccc(OC)cc2)cc1 (racemic) | 55 |
| O=C(O)C1CCCN(C/C=C/CC(c2ccccc2)(c2ccccc2)c2ccccc2)C1 (racemic) | 21.4 |
| O=C(O)C1CCCN(C/C=C/CC(c2ccccc2)c2ccccc2)C1 (racemic) | 0.166 |
| O=C(O)C1CCCN(C/C=C/C(c2ccc3occc3c2)(c2ccc3occc3c2)c2ccc3occc3c2)C1 (racemic) | 4.07 |
| Cc1ccc(C(/C=C/CN2CCCC(C(=O)O)C2)(c2ccc(C)cc2)c2ccc(C)cc2)cc1 (racemic) | 20.4 |
| COc1ccc(C(/C=C/CN2CCCC(C(=O)O)C2)(Cc2ccccc2)c2ccc(OC)cc2)cc1 (racemic) | 15.8 |
| COc1ccc(C(/C=C/CN2CCC[C@H](C(=O)O)C2)(c2ccc(OC)cc2)c2ccc3sccc3c2)cc1 | 14.1 |

tested on: Betaine/GABA transporter BGT1 (Mus musculus); test: Inhibition of mouse GAT2 expressed in HEK293 cells assessed as remaining [3H]GABA uptake at 100 uM preincubated for 25 mins followed by [3H]GABA addition and measured after 4 mins by liquid scintillation counting method

| Structure (SMILES) | Activity [%] |
| --- | --- |
| COc1ccc(C(O)(/C=C/CN2CCCC(C(=O)O)C2)c2ccc(OC)cc2)cc1 (racemic) | 69 |
| COc1ccc(C(/C=C/CN2CCCC(C(=O)O)C2)(c2ccc(OC)cc2)c2ccsc2)cc1 (racemic) | 53 |
| O=C(O)C1CCCN(C/C=C/C(c2ccccc2)(c2ccccc2)c2ccccc2)C1 (racemic) | 108 |
| COc1ccc(C(C/C=C/CN2CCCC(C(=O)O)C2)c2ccc(OC)cc2)cc1 (racemic) | 96 |
| COc1ccc(C(/C=C/CN2CCCC(C(=O)O)C2)(c2ccc(OC)cc2)c2ccc3c(c2)OCO3)cc1 (racemic) | 53 |
| COc1ccc(CC(/C=C/CN2CCCC(C(=O)O)C2)(c2ccc(OC)cc2)c2ccc(OC)cc2)cc1 (racemic) | 60 |
| COc1ccc(C(/C=C/CN2CCCC(C(=O)O)C2)c2ccc(OC)cc2)cc1 (racemic) | 51 |
| COc1ccc(C(C/C=C/CN2CCCC(C(=O)O)C2)(c2ccc(OC)cc2)c2ccc(OC)cc2)cc1 (racemic) | 66 |
| O=C(O)C1CCCN(C/C=C/CC(c2ccccc2)(c2ccccc2)c2ccccc2)C1 (racemic) | 55 |
| O=C(O)C1CCCN(C/C=C/CC(c2ccccc2)c2ccccc2)C1 (racemic) | 96 |
| COc1ccc(C(/C=C/CN2CCCC(C(=O)O)C2)(c2ccc(OC)cc2)c2nccn2C)cc1 (racemic) | 72 |
| COc1ccc(C(/C=C/CN2CCCC(C(=O)O)C2)(Cc2ccccc2)c2ccc(OC)cc2)cc1 (racemic) | 92 |
| COc1ccc(C(/C=C/CN2CCCC(C(=O)O)C2)(c2ccc(OC)cc2)c2nccs2)cc1 (racemic) | 78 |

target: T1, Sodium- and chloride-dependent GABA transporter 1; test: Displacement of NO711 from mouse GAT1 expressed in stable HEK293 cells preincubated for 10 mins followed by NO711 addition and measured after 40 mins by LC-ESI-MS/MS analysis; assay type: cell-based

| Structure (SMILES) | Ki [µM] |
| --- | --- |
| COc1ccc(C(/C=C/CN2CCCC(C(=O)O)C2)(c2ccc(OC)cc2)c2ccsc2)cc1 (racemic) | 12.9 |
| O=C(O)C1CCCN(C/C=C/C(c2ccccc2)(c2ccccc2)c2ccccc2)C1 (racemic) | 8.32 |
| COc1ccc(C(C/C=C/CN2CCCC(C(=O)O)C2)c2ccc(OC)cc2)cc1 (racemic) | 3.24 |
| O=C(O)C1CCCN(C/C=C/C(c2ccc3c(c2)OCO3)(c2ccc3c(c2)OCO3)c2ccc3c(c2)OCO3)C1 (racemic) | 6.31 |
| COc1ccc(C(/C=C/CN2CCCC(C(=O)O)C2)(c2ccc(OC)cc2)c2ccc3sccc3c2)cc1 (racemic) | 3.31 |
| COc1ccc(C(/C=C/CN2CCCC(C(=O)O)C2)(c2ccc(OC)cc2)c2ccc3c(c2)OCO3)cc1 (racemic) | 8.71 |
| COc1ccc(CC(/C=C/CN2CCCC(C(=O)O)C2)(c2ccc(OC)cc2)c2ccc(OC)cc2)cc1 (racemic) | 3.09 |
| COc1ccc(C(/C=C/CN2CCCC(C(=O)O)C2)c2ccc(OC)cc2)cc1 (racemic) | 3.72 |
| COc1ccc(C(C/C=C/CN2CCCC(C(=O)O)C2)(c2ccc(OC)cc2)c2ccc(OC)cc2)cc1 (racemic) | 34.7 |
| O=C(O)C1CCCN(C/C=C/CC(c2ccccc2)(c2ccccc2)c2ccccc2)C1 (racemic) | 9.77 |
| O=C(O)C1CCCN(C/C=C/CC(c2ccccc2)c2ccccc2)C1 (racemic) | 0.0309 |
| O=C(O)C1CCCN(C/C=C/C(c2ccc3occc3c2)(c2ccc3occc3c2)c2ccc3occc3c2)C1 (racemic) | 2.14 |
| Cc1ccc(C(/C=C/CN2CCCC(C(=O)O)C2)(c2ccc(C)cc2)c2ccc(C)cc2)cc1 (racemic) | 5.5 |
| COc1ccc(C(/C=C/CN2CCCC(C(=O)O)C2)(Cc2ccccc2)c2ccc(OC)cc2)cc1 (racemic) | 4.68 |
| COc1ccc(C(/C=C/CN2CCCC(C(=O)O)C2)(c2ccc(OC)cc2)c2nccs2)cc1 (racemic) | 33.9 |
| COc1ccc(C(/C=C/CN2CCC[C@H](C(=O)O)C2)(c2ccc(OC)cc2)c2ccc3sccc3c2)cc1 | 7.24 |

target: T2, GABA transporter 4 (Mus musculus) (UniProt P31650); test: Inhibition of mouse GAT4 expressed in HEK293 cells assessed as remaining [3H]GABA uptake at 100 uM preincubated for 25 mins followed by [3H]GABA addition and measured after 4 mins by liquid scintillation counting method; assay type: cell-based
T2 sequence (whole entry): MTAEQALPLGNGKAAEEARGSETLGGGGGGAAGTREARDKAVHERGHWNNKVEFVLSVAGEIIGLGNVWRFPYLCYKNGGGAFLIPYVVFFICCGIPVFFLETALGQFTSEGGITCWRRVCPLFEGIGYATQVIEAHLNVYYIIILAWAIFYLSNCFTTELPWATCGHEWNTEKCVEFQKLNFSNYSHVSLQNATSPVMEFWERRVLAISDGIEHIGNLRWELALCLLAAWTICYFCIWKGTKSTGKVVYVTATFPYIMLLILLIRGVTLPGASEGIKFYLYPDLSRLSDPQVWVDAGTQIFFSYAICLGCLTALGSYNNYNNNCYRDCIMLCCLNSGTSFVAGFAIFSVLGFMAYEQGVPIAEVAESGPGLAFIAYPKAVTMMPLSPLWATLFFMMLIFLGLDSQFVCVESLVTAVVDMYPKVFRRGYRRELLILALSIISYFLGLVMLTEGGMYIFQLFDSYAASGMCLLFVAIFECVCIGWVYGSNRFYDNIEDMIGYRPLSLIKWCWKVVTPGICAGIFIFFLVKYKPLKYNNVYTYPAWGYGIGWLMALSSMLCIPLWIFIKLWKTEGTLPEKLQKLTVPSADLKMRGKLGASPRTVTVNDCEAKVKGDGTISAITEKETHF

| Structure (SMILES) | Activity [%] |
| --- | --- |
| O=C(O)C1CCCN(C/C=C/C(c2ccccc2)(c2ccccc2)c2ccccc2)C1 (racemic) | 89 |
| COc1ccc(C(C/C=C/CN2CCCC(C(=O)O)C2)c2ccc(OC)cc2)cc1 (racemic) | 84 |
| O=C(O)C1CCCN(C/C=C/CC(c2ccccc2)c2ccccc2)C1 (racemic) | 82 |
| COc1ccc(C(/C=C/CN2CCCC(C(=O)O)C2)(c2ccc(OC)cc2)c2nccn2C)cc1 (racemic) | 83 |
| COc1ccc(C(/C=C/CN2CCCC(C(=O)O)C2)(Cc2ccccc2)c2ccc(OC)cc2)cc1 (racemic) | 69 |
| COc1ccc(C(/C=C/CN2CCCC(C(=O)O)C2)(c2ccc(OC)cc2)c2nccs2)cc1 (racemic) | 49 |

target: Sodium- and chloride-dependent GABA transporter 1 (Mus musculus) (UniProt P31648); test: Inhibition of mouse GAT1 expressed in HEK293 cells assessed as remaining [3H]GABA uptake at 100 uM preincubated for 25 mins followed by [3H]GABA addition and measured after 4 mins by liquid scintillation counting method; assay type: cell-based

| Structure (SMILES) | Activity [%] |
| --- | --- |
| O=C(O)C1CCCN(C/C=C/C(c2ccc3sccc3c2)(c2ccc3sccc3c2)c2ccc3sccc3c2)C1 (racemic) | 50 |
| COc1ccc(C(/C=C/CN2CCCC(C(=O)O)C2)(c2ccc(OC)cc2)c2nccn2C)cc1 (racemic) | 70 |
| COc1ccc(C(/C=C/CN2CCCC(C(=O)O)C2)(c2ccc(OC)cc2)c2nccs2)cc1 (racemic) | 65 |

target: T3, GABA transporter 4 (Mus musculus, UniProt P31650); test: Inhibition of mouse GAT4 expressed in HEK293 cells assessed as reduction in [3H]GABA uptake preincubated for 25 mins followed by [3H]GABA addition and measured after 4 mins by liquid scintillation counting method; assay type: cell-based
T3 sequence (P31650 whole entry): T2 sequence (whole entry)

| Structure (SMILES) | IC50 [µM] |
| --- | --- |
| COc1ccc(C(O)(/C=C/CN2CCCC(C(=O)O)C2)c2ccc(OC)cc2)cc1 (racemic) | 44.7 |
| COc1ccc(C(/C=C/CN2CCCC(C(=O)O)C2)(c2ccc(OC)cc2)c2ccsc2)cc1 (racemic) | 7.59 |
| O=C(O)C1CCCN(C/C=C/C(c2ccc3c(c2)OCO3)(c2ccc3c(c2)OCO3)c2ccc3c(c2)OCO3)C1 (racemic) | 15.1 |
| COc1ccc(C(/C=C/CN2CCCC(C(=O)O)C2)(c2ccc(OC)cc2)c2ccc3sccc3c2)cc1 (racemic) | 3.55 |
| COc1ccc(C(/C=C/CN2CCCC(C(=O)O)C2)(c2ccc(OC)cc2)c2ccc3c(c2)OCO3)cc1 (racemic) | 3.16 |
| COc1ccc(CC(/C=C/CN2CCCC(C(=O)O)C2)(c2ccc(OC)cc2)c2ccc(OC)cc2)cc1 (racemic) | 66.1 |
| COc1ccc(C(/C=C/CN2CCCC(C(=O)O)C2)c2ccc(OC)cc2)cc1 (racemic) | 31.6 |
| COc1ccc(C(C/C=C/CN2CCCC(C(=O)O)C2)(c2ccc(OC)cc2)c2ccc(OC)cc2)cc1 (racemic) | 41.7 |
| O=C(O)C1CCCN(C/C=C/CC(c2ccccc2)(c2ccccc2)c2ccccc2)C1 (racemic) | 74.1 |
| O=C(O)C1CCCN(C/C=C/C(c2ccc3sccc3c2)(c2ccc3sccc3c2)c2ccc3sccc3c2)C1 (racemic) | 20 |
| O=C(O)C1CCCN(C/C=C/C(c2ccc3occc3c2)(c2ccc3occc3c2)c2ccc3occc3c2)C1 (racemic) | 5.89 |
| Cc1ccc(C(/C=C/CN2CCCC(C(=O)O)C2)(c2ccc(C)cc2)c2ccc(C)cc2)cc1 (racemic) | 10.7 |
| COc1ccc(C(/C=C/CN2CCC[C@H](C(=O)O)C2)(c2ccc(OC)cc2)c2ccc3sccc3c2)cc1 | 2.88 |
